Measurements as given in article PMC5668434, “Modulation of telomere protection by the PI3K/AKT pathway” (Nature Communications, 2017).

Columns and labels:
PI3Kβ = details: reported in literature; cited from earlier work
mTOR (FRAP1) = molecular target: T1, mTOR (FRAP1) (Homo sapiens, UniProt P42345); assay: mTOR biochemical assay (LanthaScreen); details: as given in the text
T1 construct: purchased ThermoFisher PV4753

mTOR = details: reported in literature; cited from earlier work
PI3Kδ = details: reported in literature; cited from earlier work
[1] = system: TRF1 foci in CHA-9.3 mouse lung tumor cell line; assay: TRF1 foci immunofluorescence in CHA-9.3 cells; assay type: cell-based; details: Mus musculus; 10 μM; 24 h; CHA-9.3; relative to DMSO; read-out: Inhibition of TRF1 foci fluorescence
Experimental: TRF1 immunofluorescence of TRF1 was performed in lung tumor-derived cell line (CHA9.3) and in MEFs[39]. A rat monoclonal antibody against mouse TRF1 developed by the Monoclonal antibody unit at CNIO was used to detect endogenous TRF1 (1:500). GFP-TRF1 fluorescence was directly measured in cells fixed in paraformaldehyde. For quantification of TRF1 foci intensity, pictures of fixed cells were automatically acquired from each well by the Opera HCS system (Perkin Elmer). Sixty images of random fields per well, with a 40× magnification lens, were taken under non-saturating conditions. At least 1 × 10^3 cells were analyzed for each well. Briefly, images were segmented using the DAPI staining to generate masks matching cell nuclei from which-TRF1 foci were analyzed.

[2] = system: telomeric TRF1 in ER/Her2-positive breast cancer PDXs; assay: Telomeric TRF1 foci (immuno-FISH) in breast cancer PDXs; assay type: in vivo, mouse; details: BYL719 35 mg/kg QD 6 days/week, 12 days
Experimental: (§1) To this end, we generated PDXs from seven independent ER/Her2-positive breast cancer patients in female athymic NMRI nu/nu mice, and treated these with either the PI3Kα specific inhibitor BYL719 (35 mg/k 6IW) or with vehicle during a total of 12 days. Mice were then killed and PDXs extracted and formalin fixed for further analysis. A TRF1 immunofluorescence followed by a telomere quantitative q-FISH was performed in PDXs sections to identify TRF1 specifically located at telomeres by co-localization of TRF1 protein to telomeric DNA, as well as to quantify telomere length. […] Immunohistochemistry staining of phosphorylated AKT (S473) in these same PDXs followed by quantification of tumor positive area was performed to address the efficacy of BYL719 treatment (Fig. 8c, d). […]
(§2) An immune-Fish was performed in formalin-fixed paraffin-embedded PDXs sections to identify telomeric TRF1 and quantify telomere length. TRF1 foci were detected by immunofluorescence as described above. Quantitative FISH was performed as follows: samples were permeabilized for 2 h in PBS-5% Triton, blocked for 1 h with 5% BSA in PBS, and immunofluorescence with TRF1 homemade rat TRF1 antibody diluted 1:500 was performed. […] Maximal projection of Z-stack images generated using advanced fluorescence software (LAS) was analyzed with the Definiens XD software package. […]

PI3Kγ = details: reported in literature; cited from earlier work
PI3Kα = details: reported in literature; cited from earlier work
[3] = system: ER/Her2-positive breast cancer PDXs; assay: Mean telomere length by Q-FISH in PDXs; assay type: in vivo, mouse; details: seven PDXs; 12 days
Experimental: as §1, §2

[4] = system: pAKT (S473) in ER/Her2-positive breast cancer PDXs; assay: pAKT (S473) immunohistochemistry in breast cancer PDXs; assay type: in vivo, mouse; details: 12 days
Experimental: To this end, we generated PDXs from seven independent ER/Her2-positive breast cancer patients in female athymic NMRI nu/nu mice, and treated these with either the PI3Kα specific inhibitor BYL719 (35 mg/k 6IW) or with vehicle during a total of 12 days. Mice were then killed and PDXs extracted and formalin fixed for further analysis. A TRF1 immunofluorescence followed by a telomere quantitative q-FISH was performed in PDXs sections to identify TRF1 specifically located at telomeres by co-localization of TRF1 protein to telomeric DNA, as well as to quantify telomere length. Telomeric TRF1 foci at telomeres (green spots) were unequivocally identified by co-localization with telomeric PNA probe (red spots) (Fig. 8a). […] Immunohistochemistry staining of phosphorylated AKT (S473) in these same PDXs followed by quantification of tumor positive area was performed to address the efficacy of BYL719 treatment (Fig. 8c, d). […] These four PDXs were considered as “responders” to the PI3Kαi treatment. […] This unexpected increase in pAKT levels of PDX191 upon BYL719 treatment could be explained by the activation of regulatory feedback loops that trigger compensatory signaling events leading to activation of the AKT pathway. These three PDX (PDX131, PDX39, PDX191) were considered as “non-responders” to the treatment with the PI3Kα inhibitor BYL719. […] It should be pointed out that untreated PDX131 and PDX39 that presented undetectable pAKT levels correspond to those samples with the lowest telomeric TRF1 levels (Fig. 8b, d). […] In addition, the telomere length changes were more moderate as compared to changes observed in TRF1 levels.
Experiments were conducted following the European Union’s animal care directive (86/609/EEC) and were approved by the Ethical Committee of Animal Experimentation of the Vall d’Hebron Research Institute and patient consent. Fresh primary or metastatic human breast tumors were obtained from patients at time of surgery or biopsy. […]

[5] = system: ER/Her2-positive breast cancer PDXs; assay: γH2AX and telomere-induced foci (TIFs) in PDXs; assay type: in vivo, mouse; details: 12 days
Experimental: We also observed a higher number of telomere-induced DNA damage foci (TIFs) in the BYL719-treated “responder” tumors than in the “non-responders” (Fig. 8h, i), in agreement with lower levels of telomere bound TRF1 levels in the “responders” (Fig. 8b, d).
Formalin-fixed paraffin-embedded PDXs sections were permeabilized with 0.5% PBS-Triton for 1 h and blocked first with fetal bovine serum for 2 h and then in 5% BSA for 2 h. Samples were incubated O/N at 4 °C with the primary antibody. Antibodies used were anti-TRF1 (1:200) (TRF-78, ABCAM, ab10579), anti-RAP1 (1:300) (Bethyl Laboratories, A300-306A), and anti-phospho-histone2 H2AX-Ser139 (γH2AX) (1:300) (Millipore, 05-636). Slides were further incubated with 488-Alexa or 555-Alexa labeled secondary antibodies. Nuclei were counterstained in a 4 µg/ml 4′,6-[…]-2-phenylindole (DAPI)/PBS solution before mounting with Vectashield.

T1 sequence (P42345 1360-2549 limits assumed): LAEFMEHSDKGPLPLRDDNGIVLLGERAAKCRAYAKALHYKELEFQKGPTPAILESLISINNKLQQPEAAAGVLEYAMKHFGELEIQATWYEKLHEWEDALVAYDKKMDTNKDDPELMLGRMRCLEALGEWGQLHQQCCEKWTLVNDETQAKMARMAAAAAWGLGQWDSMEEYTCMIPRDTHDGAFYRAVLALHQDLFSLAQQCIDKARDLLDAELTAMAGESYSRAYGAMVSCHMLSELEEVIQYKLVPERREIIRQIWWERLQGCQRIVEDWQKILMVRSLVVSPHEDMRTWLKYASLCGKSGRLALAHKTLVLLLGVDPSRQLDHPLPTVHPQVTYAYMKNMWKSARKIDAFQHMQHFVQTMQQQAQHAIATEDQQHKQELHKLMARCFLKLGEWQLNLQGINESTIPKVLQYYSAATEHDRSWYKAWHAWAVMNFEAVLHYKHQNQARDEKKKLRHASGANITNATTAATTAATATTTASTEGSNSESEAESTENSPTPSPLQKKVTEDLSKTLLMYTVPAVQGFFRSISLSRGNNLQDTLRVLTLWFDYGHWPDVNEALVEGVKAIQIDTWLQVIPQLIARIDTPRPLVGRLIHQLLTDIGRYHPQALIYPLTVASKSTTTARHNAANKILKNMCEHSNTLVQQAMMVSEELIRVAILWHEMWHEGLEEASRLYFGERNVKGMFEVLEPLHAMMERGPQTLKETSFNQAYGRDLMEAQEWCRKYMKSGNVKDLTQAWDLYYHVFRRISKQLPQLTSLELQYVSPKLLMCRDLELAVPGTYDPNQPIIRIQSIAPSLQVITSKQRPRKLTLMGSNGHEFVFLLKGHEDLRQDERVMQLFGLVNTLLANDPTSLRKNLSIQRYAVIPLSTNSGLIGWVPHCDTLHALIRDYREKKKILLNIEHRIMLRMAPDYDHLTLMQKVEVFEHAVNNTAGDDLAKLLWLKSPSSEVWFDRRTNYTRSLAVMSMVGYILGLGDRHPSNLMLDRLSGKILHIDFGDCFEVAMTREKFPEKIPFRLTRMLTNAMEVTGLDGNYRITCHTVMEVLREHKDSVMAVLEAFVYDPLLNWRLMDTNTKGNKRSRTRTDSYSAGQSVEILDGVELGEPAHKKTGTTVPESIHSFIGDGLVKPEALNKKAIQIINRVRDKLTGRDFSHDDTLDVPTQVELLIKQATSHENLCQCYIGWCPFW

Structure (SMILES): Cc1nc(NC(=O)N2CCC[C@H]2C(N)=O)sc1-c1ccnc(C(C)(C)C(F)(F)F)c1 [BYL-719]
- IC50 (PI3Kβ): 1200 nM
- IC50 (mTOR (FRAP1)): > 10000 nM
- IC50 (mTOR): > 9100 nM
- IC50 (PI3Kδ): 290 nM
- inhibition at 10 µM [1]: 30%
- Telomeric TRF1 levels vs vehicle (in words) ([2]; PDX98): remained unchanged
- Telomeric TRF1 spot intensity, percent change vs vehicle (↑ increase) ([2]; PDX191): 80%
- IC50 (PI3Kγ): 250 nM
- Mean telomere length upon treatment (in words) [3]: moderate but significant changes
- pAKT levels upon treatment (in words) ([4]; PDX39 (negative for pAKT at basal levels)): remained unchanged
- pAKT levels upon treatment (in words) ([4]; PDX131 (negative for pAKT at basal levels)): remained unchanged
- pAKT (S473) positive tumor area, percent change vs vehicle (↑ increase) ([4]; PDX191, BYL719 35 mg/kg QD 6 days/week): 46%
- Telomere-induced DNA damage foci (TIFs), responders vs non-responders ([5]; BYL719-treated PDXs): higher number
- Cells presenting DNA damage (γH2AX positive cells) ([5]; responder PDXs): significant increase
